Patent US9051342B2 (priority 2004, dated 2015)

System: luciferase with nonsense mutation in a specific codon context (UGAA, UGAC, UAAA or UAAC)
Experiment: Western blot of luciferase protein produced by suppression of the nonsense mutation
Format: cell-based, Human embryonic kidney cells (293 cells)
Conditions: 293 cells treated with compound; continuation lines list further codon contexts
Source text: Nonsense suppression activity in an assay as described above is shown in the Table 3 below, for a construct with a UGA nonsense mutation at position 190, followed by a cytosine nucleotide in-frame, (UGAC); for a construct with UAG nonsense mutation at position 190, followed by an adenine nucleotide in-frame, (UAGA); for a construct with […] nonsense mutation at position 190, followed by an adenine nucleotide in-frame, (UAAA); and a construct with a UAA nonsense mutation at position 190, followed by an cytosine nucleotide in-frame, (UAAC). Also included in Table 3 is a column (“western blot”) indicating whether treatment of cells with the indicated compound suppresses the nonsense mutation in a specific codon context (UGAA, UGAC, UAAA or UAAC) in luciferase and results in production of luciferase protein as determined by a positive signal on a western blot. A positive result in the western blot assay is indicated by a “+” and the nonsense codon and context of the codon that is suppressed.
Another assay of the present invention can evaluate compounds that promote nonsense mutation suppression. The luciferase constructs described above in FIG. 1 are engineered to harbor two epitope tags in the N-terminus of the luciferase protein. Based on luciferase protein production, these constructs qualitatively assess the level of translation-readthrough. The presence of the full-length luciferase protein produced by suppression of the premature termination codon is measured by immunoprecipitation of the suppressed luciferase protein (using an antibody against a His tag) followed by western blotting using an antibody against the second epitope (the Xpress™ epitope; Invitrogen®; Carlsbad, Calif.). These constructs are depicted in FIG. 2.
Cells that harbor the constructs of FIG. 2 show increased full-length protein production when treated with a compound of the present invention. After treatment for 20 hours, cells containing the constructs of FIG. 2 are collected and an antibody recognizing the His epitope is used to immunoprecipitate the luciferase protein. Following immunoprecipitation, western blotting is performed using the antibody to the Xpress™ epitope (Invitrogen®; Carlsbad, Calif.) to detect the truncated luciferase (produced when no nonsense suppression occurs) and to detect the full-length protein (produced by suppression of the nonsense codon). Treatment of cells with a test compound produces full-length protein and not a readthrough protein (See e.g., FIG. 3). The readthrough protein is produced if suppression of the normal termination codon occurs. Compounds of the present invention suppress the premature, i.e. nonsense mutation, but not the normal termination codon in the luciferase mRNA.

| SMILES | western blot: production of luciferase protein; + and the codon context that is suppressed |
| --- | --- |
| Cc1ccc(-n2cc(-c3cccc(C(=O)O)c3)cn2)cc1C [Compound 237, 3-[1-(3,4-Dimethyl-phenyl)-1H-pyrazol-4-yl]-benzoic acid] | +; UGAC |

Same assay, conditions: 293 cells treated with compound; continuation lines list further codon contexts; UAAC codon context construct

| SMILES | western blot: production of luciferase protein; + and the codon context that is suppressed |
| --- | --- |
| O=C(O)c1cccc(-c2ccn(-c3ccc(OC(F)(F)F)cc3)n2)c1 [Compound 66, 3-[1-(4-Trifluoromethoxy-phenyl)-1H-pyrazol-3-yl]-benzoic acid] | UAAC |

Same assay, conditions: 293 cells treated with compound; continuation lines list further codon contexts; UGAC codon context construct

| SMILES | western blot: production of luciferase protein; + and the codon context that is suppressed |
| --- | --- |
| O=C(O)c1cccc(-c2ccn(-c3ccc(OC(F)(F)F)cc3)n2)c1 [Compound 66, 3-[1-(4-Trifluoromethoxy-phenyl)-1H-pyrazol-3-yl]-benzoic acid] | +UGAC; |

System: not given
Experiment: not given
Conditions: not given

| SMILES | melting point |
| --- | --- |
| O=C(O)c1cccc(-c2ccn(-c3ccc(OC(F)(F)F)cc3)n2)c1 [Compound 66, 3-[1-(4-Trifluoromethoxy-phenyl)-1H-pyrazol-3-yl]-benzoic acid] | 171 to 174 °C |
| Cc1ccc(-n2cc(-c3cccc(C(=O)O)c3)cn2)cc1C [Compound 237, 3-[1-(3,4-Dimethyl-phenyl)-1H-pyrazol-4-yl]-benzoic acid] | 196 to 197 °C |
| O=C(O)c1ccc(-n2cc(-c3cnccn3)cn2)cc1 [Compound 120, 4-(4-Pyrazin-2-yl-pyrazol-1-yl)-benzoic acid] | 319 to 321 °C |
| O=C(O)c1ccc(-c2ccn(-c3ccc4c(c3)OCCO4)c2)cc1 [Compound 150, 4-[1-(2,3-Dihydro-benzo[1,4]dioxin-6-yl)-1H-pyrrol-3-yl]-benzoic acid] | 273 to 276 °C |
| O=C(O)c1ccc(-c2ccn(-c3ccccc3OC(F)(F)F)c2)cc1 [Compound 199, 4-[1-(2-Trifluoromethoxy-phenyl)-1H-pyrrol-3-yl]-benzoic acid] | 164 to 165 °C |
| O=C(O)c1cccc(-c2ncn(-c3ccc(Br)cc3)n2)c1 [Compound 22, 3-[1-(4-Bromo-phenyl)-1H-[1,2,4]triazol-3-yl]-benzoic acid] | > 310 °C |
| COc1ccc(-c2ccc(-n3cnc(-c4cccc(C(=O)O)c4)n3)cc2)cc1 [Compound 27, 3-[1-(4′-Methoxy-biphenyl-4-yl)-1H-[1,2,4]triazol-3-yl]-benzoic acid] | 243 to 246 °C |
| O=C(O)c1cccc(-c2ncn(-c3ccc(N4CCCC4=O)cc3)n2)c1 [Compound 43, 3-{1-[4-(2-Oxo-pyrrolidin-1-yl)-phenyl]-1H-[1,2,4]triazol-3-yl}-benzoic acid] | 270 to 273 °C |
| CC(C)c1ccc(-c2nn(Cc3ccc(C(=O)O)cc3)c(=O)o2)cc1 [Compound 278, 4-{[5-(4-isopropylphenyl)-2-oxo-1,3,4-oxadiazol-3(2H)-yl]methyl}benzoic acid] | 217 to 219 °C |
| O=C(O)c1cccc(-c2ncn(-c3ccc(F)c(Cl)c3)n2)c1 [Compound 25, 3-[1-(3-Chloro-4-fluoro-phenyl)-1H-[1,2,4]triazol-3-yl]-benzoic acid] | 270 to 272 °C |
| O=C(O)c1cccc(-n2ncc3c2Cc2ccccc2-3)c1 [Compound 136, 3-(8H-Indeno[2,1-c]pyrazol-1-yl)-benzoic acid] | 241 to 243 °C |
| CC(C)c1ccc(-c2nn(-c3ccc(C(=O)O)cc3)c(=S)o2)cc1 [Compound 285, 4-[5-(4-Isopropyl-phenyl)-2-thioxo-[1,3,4]oxadiazol-3-yl]-benzoic acid] | 239 to 240 °C |
| Cc1nc(-c2cccc(C(=O)O)c2)nn1-c1cccc(F)c1 [Compound 34, 3-[1-(3-Fluoro-phenyl)-5-methyl-1H-[1,2,4]triazol-3-yl]-benzoic acid] | 236 to 238 °C |
| COc1ccc2c(c1)Cc1cn(-c3cccc(C(=O)O)c3)nc1-2 [Compound 139, 3-(6-Methoxy-4H-indeno[1,2-c]pyrazol-2-yl)-benzoic acid] | 272 to 273 °C |
| COc1ccc(-n2cnc(-c3cccc(C(=O)O)c3)n2)cc1 [Compound 12, 3-[1-(4-Methoxy-phenyl)-1H-[1,2,4]triazol-3-yl]-benzoic acid] | 230 to 232 °C |
| O=C(O)c1cccc(-c2ccn(-c3ccccc3)n2)c1 [Compound 65, 3-(1-Phenyl-1H-pyrazol-3-yl)-benzoic acid] | 202 to 204 °C |
| O=C(O)c1cccc(-c2ncn(-c3ccc(C(F)(F)F)cc3)n2)c1 [Compound 18, 3-[1-(4-Trifluoromethyl-phenyl)-1H-[1,2,4]triazol-3-yl]-benzoic acid] | 141 to 143 °C |
| COc1ccc(-n2ccc(-c3cccc(C(=O)O)c3)n2)cc1 [Compound 76, 3-[1-(4-Methoxy-phenyl)-1H-pyrazol-3-yl]-benzoic acid] | 160 to 161 °C |
| O=C(O)c1cccc(-c2ncn(-c3ccc(-c4ccc(F)cc4)cc3)n2)c1 [Compound 32, 3-[1-(4′-Fluoro-biphenyl-4-yl)-1H-[1,2,4]triazol-3-yl]-benzoic acid] | 272 to 275 °C |
| Cc1ccc(-n2cnc(-c3cccc(C(=O)O)c3)n2)cc1Cl [Compound 38, 3-[1-(3-Chloro-4-methyl-phenyl)-1H-[1,2,4]triazol-3-yl]-benzoic acid] | 269 to 272 °C |
| O=C(O)c1cccc(-c2ncn(-c3ccccc3Br)n2)c1 [Compound 30, 3-[1-(2-Bromo-phenyl)-1H-[1,2,4]triazol-3-yl]-benzoic acid] | 245 to 247 °C |
| O=C(O)c1ccc(-n2cc3c(n2)-c2ccccc2CC3)cc1 [Compound 161, 4-(4,5-Dihydro-benzo[g]indazol-2-yl)-benzoic acid] | 288 to 290 °C |
| O=C(O)c1cccc(-n2cc3c(n2)CCc2ccccc2-3)c1 [Compound 141, 3-(4,5-Dihydro-benzo[e]indazol-2-yl)-benzoic acid] | 233 to 234 °C |

Results, then the compound that gave them:

| melting point | SMILES |
| --- | --- |
| 230 to 231 °C | O=C(O)c1ccc(-c2cnn(-c3cccc(OC(F)(F)F)c3)c2)cc1 [Compound 224, 4-[1-(3-Trifluoromethoxy-phenyl)-1H-pyrazol-4-yl]-benzoic acid] |
| 135 to 138 °C | O=C(O)c1cccc(-c2cnn(-c3ccc(Cl)c(Cl)c3)c2)c1 [Compound 232, 3-[1-(3,4-Dichloro-phenyl)-1H-pyrazol-4-yl]-benzoic acid] |
| 164 to 165 °C | O=C(O)c1cccc(-n2cc(-c3cccc(Oc4ccccc4)c3)cn2)c1 [Compound 216, 3-[4-(3-Phenoxy-phenyl)-pyrazol-1-yl]-benzoic acid] |
| 268 to 271 °C | O=C(O)c1cccc(-n2cnc(-c3ccccc3)n2)c1 [Compound 8, 3-(3-Phenyl-[1,2,4]triazol-1-yl)-benzoic acid] |
| 209 to 210 °C | Nc1ccc(-c2cnn(-c3cccc(C(=O)O)c3)c2)cc1 [Compound 108, 3-[4-(4-Amino-phenyl)-pyrazol-1-yl]-benzoic acid] |
| 235 to 237 °C | O=C(O)c1cccc(-c2cnn(-c3ccc(F)cc3)c2)c1 [Compound 181, 3-[1-(4-Fluoro-phenyl)-1H-pyrazol-4-yl]-benzoic acid] |
| 191 to 194 °C | O=C(O)c1cccc(-n2ccc(-c3ccc(OC(F)(F)F)cc3)n2)c1 [Compound 95, 3-[3-(4-Trifluoromethoxy-phenyl)-pyrazol-1-yl]-benzoic acid] |
| 247 to 248 °C | O=C(O)c1ccc(-n2cc(-c3cccc(Br)c3)cn2)cc1 [Compound 89, 4-[4-(3-Bromo-phenyl)-pyrazol-1-yl]-benzoic acid] |
| 285 to 288 °C | Cc1ccc(-n2cc(-c3ccc(C(=O)O)cc3)cn2)cc1Cl [Compound 231, 4-[1-(3-Chloro-4-methyl-phenyl)-1H-pyrazol-4-yl]-benzoic acid] |
| 274 to 276 °C | O=C(O)c1cccc(-n2cc(-c3ccc([N+](=O)[O-])cc3)cn2)c1 [Compound 101, 3-[4-(4-Nitro-phenyl)-pyrazol-1-yl]-benzoic acid] |
| 157 to 158 °C | COc1cccc(-c2cnn(-c3cccc(C(=O)O)c3)c2)c1 [Compound 112, 3-[4-(3-Methoxy-phenyl)-pyrazol-1-yl]-benzoic acid] |
| 166 to 167 °C | O=C(O)c1cccc(-n2ccc(-c3ccccc3F)n2)c1 [Compound 169, 3-[3-(2-Fluoro-phenyl)-pyrazol-1-yl]-benzoic acid] |
| 221 to 223 °C | O=C(O)c1cccc(-c2cnn(-c3ccc4c(c3)OCO4)c2)c1 [Compound 239, 3-(1-Benzo[1,3]dioxol-5-yl-1H-pyrazol-4-yl)-benzoic acid] |
| 199 to 201 °C | O=C(O)c1ccc(-c2ccn(-c3cccc(Cl)c3)c2)cc1 [Compound 243, 4-[1-(3-Chloro-phenyl)-1H-pyrrol-3-yl]-benzoic acid] |
| 212 to 213 °C | Cc1cccc(-n2ccc(-c3ccc(C(=O)O)cc3)c2)c1 [Compound 194, 4-(1-m-Tolyl-1H-pyrrol-3-yl)-benzoic acid] |
| 222 to 223 °C | COc1cccc(-c2cnn(-c3ccc(C(=O)O)cc3)c2)c1 [Compound 109, 4-[4-(3-Methoxy-phenyl)-pyrazol-1-yl]-benzoic acid] |
